Measured values reported in EP4692089A1, “NITROGEN-CONTAINING HETEROCYCLIC COMPOUND AS AAK1 INHIBITOR” (Alicorn Pharmaceutical Co., Ltd., priority 2023, dated 2024).
Where a name gives a salt, the structure may show the parent alone.

What was measured:
AAK1 (30-330) protein [1] = biological target: T1, AAK1 (30-330) protein (Homo sapiens, UniProt Q2M2I8); experiment: CETSA test of binding ability to AAK1 protein (Western blot)
T1 construct: (His)6x (N); TEV protease cleavage site (N); made in house; host or cells: Escherichia coli BL21(DE3)
Protocol: Experimental objective: To detect the binding ability of compounds to AAK1 protein by means of a CETSA experiment.
Background principle: The CETSA experiment is a molecular detection means for measuring the affinity between drugs and target proteins. […] When a candidate drug is co-incubated with a target protein, if the candidate drug is an inhibitor of AAK1, it can bind to AAK1. […] On the contrary, the stability of the AAK1 protein after heating will be poorer, and the amount of the detected protein will be lower. In this way, the binding ability of the drug to the target protein can be evaluated, which is used for the screening of AAK1 protein inhibitors.
(§1) Expression of AAK1 (30-330) protein: The AAK1 sequence (residues 30-330) was cloned into the pET24N vector with an N-terminal (His)6x tag and a tobacco etch virus (TEV) protease cleavage site. The constructed vector was transformed into Escherichia coli BL21(DE3). When the bacteria were cultured with shaking to reach an OD value of 0.6, 1 mM IPTG was added. […] The bacterial cells were collected and subjected to ultrasonic disruption. The supernatant was obtained by centrifugation, and the protein was purified using Ni-NTA. After dialysis, the concentration and purity of the protein were determined.
CETSA sample preparation: Samples were incubated with candidate drugs, control drugs, and control reagents separately for 30 minutes. Each group of samples was heated at approximately 10 pre-set temperature points. After being returned to room temperature, the samples were centrifuged at 20000 g, and the supernatants were collected. Protein samples were denatured by heating at 100°C for 10 minutes with a sample buffer. After the samples were returned to room temperature, Western blot detection was performed on them; the protein loading amount was controlled at 20 µg. […] The same operations were followed, and Western blot detection was conducted. Protein electrophoresis: The voltage for the stacking gel was set at 60 V, and that for the separating gel was set at 120 V. After electrophoresis, electrotransfer was initiated. Electrotransfer conditions were set at 250 mA for 2 h. Blocking with 5% BSA was performed for 1 h. A specific primary antibody was added, and incubation was carried out overnight at 4°C on a shaker. Washing with TBST was conducted 4 times, with 2.5 minutes each time. A secondary antibody was incubated on a shaker at room temperature for 1 h. Washing with TBST was conducted 4 times, with 2.5 minutes each time. ECL was used for development to detect the expression levels of AAK1 protein in different groups and at each temperature point. Western blot bands were processed and converted using Image J and GraphPad software to calculate EC50.

AAK1 = biological target: T2, AAK1 (Homo sapiens, UniProt Q2M2I8); experiment: Effect on AP2M1 phosphorylation in 293T cells co-transfected with AAK1 and AP2M1 (Western blot, anti-p-AP2M1); format: cell-based; conditions: p-AP2M1 level, incubated 3 h
T2 construct: HA; expressed in transfected cells; host or cells: 293T cells
Text: Experimental objective: The objective of this test example is to determine the effect of compounds on AP2M1 phosphorylation in cells.
Background principle: Adaptor-associated kinase 1 (AAK1), also known as AP2-associated kinase 1, is a 104 kDa serine/threonine kinase. AAK1 interacts with the adaptor protein 2 (AP2) complex and phosphorylates the threonine residue in the micro-subunit of AP2 (AP2M1), thereby increasing its binding affinity for certain tyrosine-based or dileucine-based sorting signals of some membrane receptors. The inhibitory effect of compounds on AAK1 was evaluated by detecting the phosphorylation level of AP2M1 in cells, so as to screen candidate compounds.
On the second day, each T25 flask was co-transfected with 16 µg of plasmids (1 µg of AAK1/HA/pIRES and 15 µg of Flag/AP2MI/pcDNA) using a Lip2000 transfection reagent. On the third day, the cells were digested and resuspended, centrifuged at 1000 rpm for 5 minutes, and then seeded into 24-well plates at 450 µl per well (2 × 10^5 cells/well). Gradient dilutions of the compounds to be tested were prepared, 50 µl was added to each well, mixed thoroughly, and incubated at 37°C for 3 h. DMSO was set as a control, and cells without plasmid transfection were set as a blank control. After incubation, the cells were collected and washed twice with PBS. The cells were lysed on ice for 30 minutes using a cell lysis buffer containing the protease inhibitor PMSF. The concentration of protein samples was determined using a BCA kit. Protein electrophoresis: The voltage for the stacking gel was set at 60 V, and that for the separating gel was set at 120 V. After electrophoresis, electrotransfer was initiated. Electrotransfer conditions were set at 250 mA for 2 h. Blocking with 5% BSA was performed for 1 h. A specific primary antibody, anti-p-AP2M1, was added, and incubation was carried out overnight at 4°C on a shaker. Washing with TBST was conducted 4 times, with 2.5 minutes each time. A secondary antibody was incubated on a shaker at room temperature for 1 h. Washing with TBST was conducted 4 times, with 2.5 minutes each time. ECL was used for development to detect the expression level of p-AP2M1. Western blot bands were processed and converted using Image J and GraphPad software to calculate IC50.
IC50 (half maximal inhibitory concentration) refers to the half-inhibitory concentration of the measured antagonist. It can indicate the concentration of a certain drug or substance (inhibitor) that achieves half of the inhibition effect on certain biological processes (or certain substances involved in these processes, such as enzymes, cellular receptors, or microorganisms).

AAK1 (30-330) protein [2] = biological target: T1, AAK1 (30-330) protein; experiment: AAK1 kinase assay (ADP generated, detected by HPLC); format: biochemical; conditions: 3.5 nM AAK1, 22 µM ATP, 25°C, 3 h
Text: Experimental objective: The objective of this test example is to test the effect of compounds on AAK1 kinase function.
Background principle: AAK1 phosphorylates the threonine residue in the micro-subunit of AP2 (AP2M1). In this process, ATP provides phosphate groups to generate ADP. Therefore, the activity of AAK1 kinase can be evaluated by detecting the amount of ADP generated.
as §1
The reaction mixture was incubated in a metal bath at 25°C for 3 h. The reaction was terminated by adding 1% SDS, and the amount of ADP generated was detected by HPLC. IC50 values were calculated using GraphPad software.

T1 sequence (Q2M2I8 30-330): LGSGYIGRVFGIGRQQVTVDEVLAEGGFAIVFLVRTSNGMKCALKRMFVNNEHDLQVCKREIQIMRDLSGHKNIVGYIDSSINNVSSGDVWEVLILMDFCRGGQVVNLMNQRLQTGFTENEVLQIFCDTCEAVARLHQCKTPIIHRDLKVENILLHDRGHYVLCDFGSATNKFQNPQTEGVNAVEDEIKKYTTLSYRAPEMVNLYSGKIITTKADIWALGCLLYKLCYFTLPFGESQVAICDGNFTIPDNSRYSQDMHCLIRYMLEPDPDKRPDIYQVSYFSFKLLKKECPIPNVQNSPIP
T2 sequence (Q2M2I8 whole entry): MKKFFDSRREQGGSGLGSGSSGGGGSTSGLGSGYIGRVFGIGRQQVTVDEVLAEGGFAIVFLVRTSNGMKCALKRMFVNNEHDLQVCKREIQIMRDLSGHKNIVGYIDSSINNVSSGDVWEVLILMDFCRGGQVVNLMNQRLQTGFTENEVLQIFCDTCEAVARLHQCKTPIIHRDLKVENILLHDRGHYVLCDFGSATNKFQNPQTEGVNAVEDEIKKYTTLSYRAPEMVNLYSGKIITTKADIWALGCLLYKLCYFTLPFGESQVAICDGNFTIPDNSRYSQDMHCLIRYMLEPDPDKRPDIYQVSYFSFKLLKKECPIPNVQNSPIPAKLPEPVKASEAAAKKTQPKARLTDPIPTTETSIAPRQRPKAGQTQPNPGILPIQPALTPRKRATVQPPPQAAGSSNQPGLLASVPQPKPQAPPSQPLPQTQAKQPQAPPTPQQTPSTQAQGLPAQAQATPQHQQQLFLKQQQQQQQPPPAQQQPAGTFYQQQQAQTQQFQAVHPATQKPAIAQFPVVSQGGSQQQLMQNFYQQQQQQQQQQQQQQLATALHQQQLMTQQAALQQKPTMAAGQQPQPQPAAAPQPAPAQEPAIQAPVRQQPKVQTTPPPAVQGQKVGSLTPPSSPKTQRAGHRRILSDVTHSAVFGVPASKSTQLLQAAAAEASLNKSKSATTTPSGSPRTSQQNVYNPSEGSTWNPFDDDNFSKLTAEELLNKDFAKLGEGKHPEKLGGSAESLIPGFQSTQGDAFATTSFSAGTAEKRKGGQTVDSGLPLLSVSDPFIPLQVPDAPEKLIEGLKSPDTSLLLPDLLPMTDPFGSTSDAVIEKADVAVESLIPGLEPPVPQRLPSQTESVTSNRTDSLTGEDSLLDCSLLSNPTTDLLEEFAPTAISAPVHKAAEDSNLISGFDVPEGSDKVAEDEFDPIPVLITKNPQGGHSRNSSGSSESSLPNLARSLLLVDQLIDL

| SMILES | EC50 (AAK1 (30-330) protein [1]) | IC50 (AAK1) | IC50 (AAK1 (30-330) protein [2]) |
| --- | --- | --- | --- |
| CC(C)C[C@@](C)(N)COc1ccc(-c2ccnc3ccnn23)nc1C(F)F [Compound 1, (R)-1-{[2-(difluoromethyl)-6-(pyrazolo[1,5-a]pyrimidin-7-yl)pyridin-3-yl]oxy}-2,4-dimet hylpentan-2-amine] | 0.01 to 0.1 µM | 0.01 to 0.1 µM | 0.0321 µM |
| CC(C)C[C@@](C)(N)COc1ccc(-c2c[nH]c3ncccc23)nc1C(F)F [Compound 2, (R)-1-{[2-(difluoromethyl)-6-(1H-pyrrolo[2,3-b]pyridin-3-yl)pyridin-3-yl]oxy}-2,4-dimet hylpentan-2-amine] | 0.01 to 0.1 µM | 0.01 to 0.1 µM | 0.0283 µM |
| CC(C)C[C@](C)(N)COc1ccc(-c2c[nH]c3ncccc23)nc1C(F)F [Compound 3] | 0.01 to 0.1 µM | 0.01 to 0.1 µM | 0.0212 µM |
| CC(C)C[C@](C)(N)COc1ccc(-c2c[nH]c3nc(C(F)(F)F)ccc23)nc1C(F)F [Compound 4] | 0.01 to 0.1 µM | 0.01 to 0.1 µM | 0.0459 µM |
| CC(C)C[C@@](C)(N)COc1ccc(-c2c[nH]c3nc(C(F)(F)F)ccc23)nc1C(F)F [Compound 5] | 0.01 to 0.1 µM | 0.01 to 0.1 µM | 0.0861 µM |
| CC(C)C[C@](C)(N)COc1ccc(-c2ccnc3[nH]cnc23)nc1C(F)F [Compound 6] | 0.01 to 0.1 µM | 0.01 to 0.1 µM | 0.0752 µM |
| CC(C)C[C@@](C)(N)COc1ccc(-c2ccnc3[nH]cnc23)nc1C(F)F [Compound 7] | 0.1 to 1 µM | 0.01 to 0.1 µM | 0.101 µM |
| CC(C)C[C@](C)(N)COc1ccc(-c2ccnc3[nH]c(C(F)(F)F)nc23)nc1C(F)F [Compound 8] | 0.01 to 0.1 µM | 0.01 to 0.1 µM | 0.129 µM |
| CC(C)C[C@@](C)(N)COc1ccc(-c2ccnc3[nH]c(C(F)(F)F)nc23)nc1C(F)F [Compound 9] | 0.01 to 0.1 µM | 0.01 to 0.1 µM | 0.0992 µM |
| CC(C)C[C@](C)(N)COc1ccc(-c2ccnc3c2nc(C(F)(F)F)n3C)nc1C(F)F [Compound 10] | 0.01 to 0.1 µM | 0.01 to 0.1 µM | 0.152 µM |
| CC(C)C[C@@](C)(N)COc1ccc(-c2ccnc3c2nc(C(F)(F)F)n3C)nc1C(F)F [Compound 11] | 0.01 to 0.1 µM | 0.01 to 0.1 µM | 0.123 µM |
| CC(C)C[C@](C)(N)COc1ccc(-c2cncc3[nH]c(C(F)(F)F)nc23)nc1C(F)F [Compound 12] | 0.01 to 0.1 µM | 0.01 to 0.1 µM | 0.0992 µM |
| CC(C)C[C@@](C)(N)COc1ccc(-c2cncc3[nH]c(C(F)(F)F)nc23)nc1C(F)F [Compound 13] | 0.01 to 0.1 µM | 0.01 to 0.1 µM | 0.168 µM |
| CC(C)C[C@](C)(N)COc1ccc(-c2c[nH]c3nc(F)ccc23)nc1C(F)F [Compound 14] | 0.01 to 0.1 µM | 0.01 to 0.1 µM | 0.102 µM |
| CC(C)C[C@@](C)(N)COc1ccc(-c2c[nH]c3nc(F)ccc23)nc1C(F)F [Compound 15] | 0.01 to 0.1 µM | 0.01 to 0.1 µM | 0.111 µM |
| COc1ccnc2[nH]cc(-c3ccc(OC[C@@](C)(N)CC(C)C)c(C(F)F)n3)c12 [Compound 16, (S)-1-{[2-(difluoromethyl)-6-(4-methoxy-1H-pyrrolo[2,3-b]pyridin-3-yl)pyridin-3-yl]oxy}-2,4-dimethylpentan-2-amine tris(trifluoroacetate)] | 0.01 to 0.1 µM | 0.01 to 0.1 µM | 0.0872 µM |
| COc1ccnc2[nH]cc(-c3ccc(OC[C@](C)(N)CC(C)C)c(C(F)F)n3)c12 [Compound 17, (R)-1-{[2-(difluoromethyl)-6-(4-methoxy-1H-pyrrolo[2,3-b]pyridin-3-yl)pyridin-3-yl]oxy}-2,4-dimethylpentan-2-amine] | 0.01 to 0.1 µM | 0.1 to 1 µM | 0.0569 µM |
| CC(C)C[C@](C)(N)COc1ccc(-c2ccnc3c(F)cnn23)nc1C(F)F [Compound 18] | 0.01 to 0.1 µM | 0.01 to 0.1 µM | 0.0425 µM |
| CC(C)C[C@@](C)(N)COc1ccc(-c2ccnc3c(F)cnn23)nc1C(F)F [Compound 19] | 0.01 to 0.1 µM | 0.01 to 0.1 µM | 0.0873 µM |
| Cc1nc2ccnn2c(-c2ccc(OC[C@@](C)(N)CC(C)C)c(C(F)F)n2)c1F [Compound 20] | 0.01 to 0.1 µM | 0.01 to 0.1 µM | 0.102 µM |
| Cc1nc2ccnn2c(-c2ccc(OC[C@](C)(N)CC(C)C)c(C(F)F)n2)c1F [Compound 21] | 0.1 to 1 µM | 0.01 to 0.1 µM | 0.19 µM |
| CC(C)C[C@](C)(N)COc1ccc(-c2ccnc3c(C(=O)O)cnn23)nc1C1CC1 [Compound 22] | 0.1 to 1 µM | 0.01 to 0.1 µM | 0.17 µM |
| CC(C)C[C@](C)(N)COc1ccc(-c2c[nH]c3ncc(C#N)cc23)nc1C(F)F [Compound 27] | 0.01 to 0.1 µM | 0.1 to 1 µM | 0.0578 µM |
| CC(C)C[C@](C)(N)COc1ccc(-c2c[nH]c3ncc(C(F)F)cc23)nc1C(F)F [Compound 28, (S)-1-{[2-(difluoromethyl)-6-[5-(difluoromethyl)-1H-pyrrolo[2,3-b]pyridin-3-yl]pyridin-3-yl]oxy}-2,4-dimethylpentan-2-amine formate] | 0.01 to 0.1 µM | 0.01 to 0.1 µM | 0.0653 µM |
| CC(C)C[C@](C)(N)COc1ccc(-c2c[nH]c3ncc(C(F)F)cc23)cc1C(F)(F)F [Compound 33] | 0.01 to 0.1 µM | 0.01 to 0.1 µM | 0.0695 µM |
| CC(C)C[C@](C)(N)COc1ncc(-c2c[nH]c3ncc(C(F)F)cc23)c(C(F)(F)F)n1 [Compound 39] | 0.01 to 0.1 µM | 0.01 to 0.1 µM | 0.101 µM |
| CC(C)C[C@](C)(N)COc1ccc(-c2cn(C)c3ncc(F)cc23)nc1C(F)F [Compound 43, (S)-1-{[2-(difluoromethyl)-6-(5-fluoro-1-methyl-1H-pyrrolo[2,3-b]pyridin-3-yl)pyridin-3-yl]oxy}-2,4-dimethylpentan-2-amine] | < 0.01 µM | < 0.01 µM | 0.0121 µM |
